Assay results as given in patent US20210147900A1, “METHODS AND COMPOSITIONS FOR DETECTING BETA-HYDROXYBUTYRATE IN BIOLOGICAL FLUIDS” (F.A.T. Stats LLC, priority 2019, published 2021).

Assay: Solubility / appearance of coenzyme Q with β-cyclodextrin in water or Tris/NaOH buffer
Format: physicochemical
Details: for Appearance: in water, 5 hours at 75° C. and 5 hours at 85° C.
Protocol: First, 0.107 grams of β-cyclodextrin was dissolved in 4.8 grams of the Tris/NaOH buffer solution (pH 8.7). This mixture this heated at 45° C. for 5 minutes and then 0.082 g of coenzyme Q0 was added. Heating was continued until coenzyme Q0 was no longer visible as a solid. The coenzyme Q0/β-cyclodextrin solution was used within 2 hours of making it. Alternatively, 0.0074 grams of coenzyme Q0 and 0.0481 grams of β-cyclodextrin was mixed with 1.2070 grams water. This mixture was heated at 50° C. for 20 minutes with stirring. […] This procedure results in a fully solubilized form of coenzyme Q0 which is optically transparent and has no visible particles of coenzyme Q0 in the mixture. It is important that the coenzyme Q0 mixture is fully soluble so that it may be mixed with other water-soluble ingredients and applied to a paper test strip for further reactions with biological solutes. If the coenzyme Q0/β-cyclodextrin mixture is not water soluble, it cannot provide a uniform distribution of reactions for the test for BHB in a biological fluid as disclosed herein.
The procedure for solubilizing coenzyme Q10 in U.S. Patent Application Publication No. US 2007/0202090 A1 was followed and results are listed below in Table 17. Coenzyme Q10 and β-cyclodextrin were combined with water in the following molar ratios of coenzyme Q10 to β-cyclodextrin: 1:1; 1:5; and 1:10. Each solution was heated for 5 hours at 75° C. and then an additional 5 hours at 85° C.

| Compound | Appearance of mixture with β-cyclodextrin in water (0.0074 g coenzyme Q0, 0.0481 g β-cyclodextrin, 1.2070 g water, 50° C. for 20 minutes with stirring) | Appearance (molar ratio coenzyme Q10 to β-cyclodextrin 1:1) | Appearance (molar ratio coenzyme Q10 to β-cyclodextrin 1:5) | Appearance (molar ratio coenzyme Q10 to β-cyclodextrin 1:10) | Incorporation in basic buffer solution with β-cyclodextrin (same procedure as Example 2 (Tris/NaOH buffer pH 8.7, heating)) |
| --- | --- | --- | --- | --- | --- |
| COC1=C(OC)C(=O)C(C)=CC1=O [coenzyme Q0, 2,3-dimethoxy-5-methyl-p-benzoquinone] | transparent solution with no visible particles | – | – | – | – |
| COC1=C(OC)C(=O)C(C/C=C(\C)CC/C=C(\C)CC/C=C(\C)CC/C=C(\C)CC/C=C(\C)CC/C=C(\C)CC/C=C(\C)CC/C=C(\C)CC/C=C(\C)CCC=C(C)C)=C(C)C1=O [coenzyme Q10] | – | not transparent; | not transparent; | not transparent; | could not be adequately incorporated |
